Measurements taken from ChEMBL document CHEMBL1201862, “PubChem BioAssay data set” (2004).
One block for each compound: values may come before it. Calls of active or inactive are those of the source.

Assays:
Aspartyl aminopeptidase = target: T1, Aspartyl aminopeptidase (Plasmodium falciparum 3D7, UniProt Q8I2J3)
T1 sequence (Q8I2J3 whole entry): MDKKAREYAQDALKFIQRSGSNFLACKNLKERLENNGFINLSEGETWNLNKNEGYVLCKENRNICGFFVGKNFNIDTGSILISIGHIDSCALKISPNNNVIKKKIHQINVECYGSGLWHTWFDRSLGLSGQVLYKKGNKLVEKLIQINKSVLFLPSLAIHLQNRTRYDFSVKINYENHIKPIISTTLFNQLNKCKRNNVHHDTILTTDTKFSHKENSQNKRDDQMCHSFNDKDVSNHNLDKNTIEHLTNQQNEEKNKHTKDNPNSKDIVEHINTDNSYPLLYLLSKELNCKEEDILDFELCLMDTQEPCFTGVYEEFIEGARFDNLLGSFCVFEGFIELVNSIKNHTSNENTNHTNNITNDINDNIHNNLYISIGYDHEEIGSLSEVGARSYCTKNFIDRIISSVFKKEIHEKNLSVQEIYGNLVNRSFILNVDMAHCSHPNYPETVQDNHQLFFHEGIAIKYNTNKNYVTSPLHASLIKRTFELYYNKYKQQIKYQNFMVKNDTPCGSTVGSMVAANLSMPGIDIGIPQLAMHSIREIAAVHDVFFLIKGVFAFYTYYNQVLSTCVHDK

Procathepsin L = Procathepsin L (Homo sapiens, UniProt P07711)
[1] = inhibitors of Bluetongue virus cytopathic effect, confirmation, arbovirus, BSR cells (AID 1250); assay type: functional;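 note: protection from viral cytopathic effect measured as cell viability by ATP luminescence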
Beta-galactosidase = Beta-galactosidase (Escherichia coli, UniProt Q8VNN2); assay: beta-galactosidase enzyme inhibitors and activators, dose response, artefact control for CCR6 antagonist project, biochemical, E. coli enzyme, set 3 (AID 504712); assay type: functional
[2] = target: Glyceraldehyde-3-phosphate dehydrogenase (Homo sapiens, UniProt P04406)
[3] = target: T2, Alkaline phosphatase, tissue-nonspecific isozyme (Homo sapiens, UniProt P05186); assay: human TNAP enzyme inhibitors, SAR follow-up, biochemical, luminescent, dose response (AID 1056)
T2 sequence (P05186 whole entry): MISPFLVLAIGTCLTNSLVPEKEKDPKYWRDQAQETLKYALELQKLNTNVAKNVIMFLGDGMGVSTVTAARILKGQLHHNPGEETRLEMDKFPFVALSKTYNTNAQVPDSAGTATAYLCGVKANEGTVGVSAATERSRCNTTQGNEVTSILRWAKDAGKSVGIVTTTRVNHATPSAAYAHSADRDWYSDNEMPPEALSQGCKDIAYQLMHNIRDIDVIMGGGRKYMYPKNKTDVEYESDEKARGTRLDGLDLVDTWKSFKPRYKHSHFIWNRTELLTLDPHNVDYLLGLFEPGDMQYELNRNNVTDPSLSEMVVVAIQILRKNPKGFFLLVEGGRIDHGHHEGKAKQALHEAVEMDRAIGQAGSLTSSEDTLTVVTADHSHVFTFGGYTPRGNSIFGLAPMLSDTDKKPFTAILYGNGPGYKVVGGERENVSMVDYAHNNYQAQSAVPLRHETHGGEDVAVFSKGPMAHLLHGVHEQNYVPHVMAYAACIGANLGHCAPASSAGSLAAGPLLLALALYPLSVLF

[4] = target: Alkaline phosphatase, placental type (Homo sapiens, UniProt P05187); assay: PLAP enzyme inhibitors, confirmation, biochemical, luminescence (AID 1512); assay type: functional
[5] = target: Heat shock protein HSP 90-alpha (Homo sapiens, UniProt P07900); assay type: functional, organism-based
Caspase-7 = target: T3, Caspase-7 (Homo sapiens, UniProt P55210); assay: procaspase-7 activators, dose response, dual procaspase-3/-7 activator project, biochemical, absorbance, human (AID 504330)
T3 sequence (P55210 whole entry): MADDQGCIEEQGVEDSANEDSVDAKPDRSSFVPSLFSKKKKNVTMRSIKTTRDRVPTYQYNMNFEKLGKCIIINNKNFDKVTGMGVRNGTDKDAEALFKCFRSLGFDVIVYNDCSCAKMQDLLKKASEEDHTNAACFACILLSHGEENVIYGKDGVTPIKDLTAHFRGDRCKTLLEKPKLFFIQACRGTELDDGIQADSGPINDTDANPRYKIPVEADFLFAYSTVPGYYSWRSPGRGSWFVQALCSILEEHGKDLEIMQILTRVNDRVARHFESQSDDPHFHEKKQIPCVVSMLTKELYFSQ

Caspase-3 = target: T4, Caspase-3 (Homo sapiens, UniProt P42574); assay: procaspase-3 activation potency of dual hits, dose response, counter-screen for dual procaspase-3/7 activator project, biochemical, absorbance, PC-3 D3A mutant (AID 504328)
T4 sequence (P42574 whole entry): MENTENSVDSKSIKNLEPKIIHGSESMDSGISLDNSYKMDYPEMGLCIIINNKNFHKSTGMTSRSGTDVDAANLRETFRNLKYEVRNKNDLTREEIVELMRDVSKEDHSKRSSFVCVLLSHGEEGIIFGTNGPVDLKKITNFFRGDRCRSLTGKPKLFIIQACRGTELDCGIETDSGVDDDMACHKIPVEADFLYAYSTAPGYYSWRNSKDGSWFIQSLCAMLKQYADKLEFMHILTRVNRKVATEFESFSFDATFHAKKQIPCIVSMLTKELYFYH

Chain of Procathepsin L (P07711 whole entry): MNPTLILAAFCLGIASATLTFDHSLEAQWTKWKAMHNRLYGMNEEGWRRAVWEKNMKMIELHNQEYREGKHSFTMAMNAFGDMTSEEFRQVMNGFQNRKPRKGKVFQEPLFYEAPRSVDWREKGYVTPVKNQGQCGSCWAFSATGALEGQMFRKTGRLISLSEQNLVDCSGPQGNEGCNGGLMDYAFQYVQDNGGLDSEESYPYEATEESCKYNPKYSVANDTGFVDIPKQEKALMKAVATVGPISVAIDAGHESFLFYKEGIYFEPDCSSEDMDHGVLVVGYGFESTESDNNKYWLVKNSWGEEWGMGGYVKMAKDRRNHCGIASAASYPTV
Chain of Beta-galactosidase (Q8VNN2 whole entry): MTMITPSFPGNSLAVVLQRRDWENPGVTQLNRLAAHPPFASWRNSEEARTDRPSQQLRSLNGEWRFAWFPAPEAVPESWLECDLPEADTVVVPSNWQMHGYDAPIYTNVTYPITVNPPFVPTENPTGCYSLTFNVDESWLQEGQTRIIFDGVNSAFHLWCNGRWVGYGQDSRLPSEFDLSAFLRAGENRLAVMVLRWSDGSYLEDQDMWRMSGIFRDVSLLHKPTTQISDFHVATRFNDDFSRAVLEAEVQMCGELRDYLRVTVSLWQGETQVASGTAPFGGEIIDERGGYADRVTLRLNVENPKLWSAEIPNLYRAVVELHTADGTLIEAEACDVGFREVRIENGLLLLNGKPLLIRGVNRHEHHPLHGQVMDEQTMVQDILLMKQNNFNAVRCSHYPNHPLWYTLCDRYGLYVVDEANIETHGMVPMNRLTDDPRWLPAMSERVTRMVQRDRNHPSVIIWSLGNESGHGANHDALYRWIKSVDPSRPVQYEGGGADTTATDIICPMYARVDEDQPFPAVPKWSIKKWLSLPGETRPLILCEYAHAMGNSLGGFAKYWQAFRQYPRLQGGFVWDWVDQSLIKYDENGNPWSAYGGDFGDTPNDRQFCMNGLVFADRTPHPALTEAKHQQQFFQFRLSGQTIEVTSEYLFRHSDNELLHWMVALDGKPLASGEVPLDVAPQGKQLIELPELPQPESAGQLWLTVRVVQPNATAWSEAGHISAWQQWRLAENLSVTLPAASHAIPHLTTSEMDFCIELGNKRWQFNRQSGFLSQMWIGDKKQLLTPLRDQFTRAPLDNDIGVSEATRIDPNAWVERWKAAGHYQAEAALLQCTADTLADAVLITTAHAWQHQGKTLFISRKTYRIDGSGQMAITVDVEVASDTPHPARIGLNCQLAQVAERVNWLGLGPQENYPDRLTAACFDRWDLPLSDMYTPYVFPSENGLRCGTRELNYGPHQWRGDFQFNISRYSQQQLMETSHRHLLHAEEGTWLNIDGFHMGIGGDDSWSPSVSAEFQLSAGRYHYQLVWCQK
Chain of Glyceraldehyde-3-phosphate dehydrogenase (P04406 whole entry): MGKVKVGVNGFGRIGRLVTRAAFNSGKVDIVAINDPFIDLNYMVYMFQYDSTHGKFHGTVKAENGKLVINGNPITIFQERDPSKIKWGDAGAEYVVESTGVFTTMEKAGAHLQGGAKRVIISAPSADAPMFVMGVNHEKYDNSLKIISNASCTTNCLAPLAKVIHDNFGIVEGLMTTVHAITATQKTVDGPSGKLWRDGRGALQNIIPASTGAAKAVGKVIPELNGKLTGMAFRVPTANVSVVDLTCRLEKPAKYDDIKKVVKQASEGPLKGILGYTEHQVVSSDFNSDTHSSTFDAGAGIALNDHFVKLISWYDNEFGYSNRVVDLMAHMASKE
Chain of Alkaline phosphatase, placental type (P05187 whole entry): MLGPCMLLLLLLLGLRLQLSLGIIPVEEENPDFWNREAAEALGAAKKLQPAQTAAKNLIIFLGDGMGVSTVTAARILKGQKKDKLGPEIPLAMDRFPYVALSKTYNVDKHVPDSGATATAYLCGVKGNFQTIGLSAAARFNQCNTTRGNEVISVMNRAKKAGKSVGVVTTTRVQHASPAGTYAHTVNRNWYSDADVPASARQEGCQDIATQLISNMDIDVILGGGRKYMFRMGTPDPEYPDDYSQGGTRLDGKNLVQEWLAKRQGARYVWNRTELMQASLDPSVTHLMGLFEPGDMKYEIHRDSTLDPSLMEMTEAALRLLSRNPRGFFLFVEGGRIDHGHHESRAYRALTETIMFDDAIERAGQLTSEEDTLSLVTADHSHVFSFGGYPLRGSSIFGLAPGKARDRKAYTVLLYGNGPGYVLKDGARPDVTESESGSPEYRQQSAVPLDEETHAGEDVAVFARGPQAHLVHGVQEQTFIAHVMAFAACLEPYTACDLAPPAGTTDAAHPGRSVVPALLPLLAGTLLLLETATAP

Structure (SMILES): Cc1cc(OCC(=O)Nn2cnnc2)ccc1Br
IC50 (Aspartyl aminopeptidase): 2.55 µM (active) | IC50 (Procathepsin L): > 59.6 µM (not active)

Structure (SMILES): Cc1nn(-c2cc(C(F)(F)F)ccc2Cl)c2nc(C(F)(F)F)nc(O)c12
IC50 [1]: 22.5 µM (active)

Structure (SMILES): O=C(NCc1ccccc1Cl)C1CCN(S(=O)(=O)c2cccc3nonc23)CC1
IC50 (cells): 27.2 µM (active)

Structure (SMILES): CN(Cc1nc(O)c2ccccc2n1)C(=O)c1cc(C2CC2)nn1-c1ccccc1
IC50 (cells): 21.6 µM (active)

Structure (SMILES): O=C(c1cc(-c2ccc(Cl)cc2Cl)n[nH]1)N1CCCC1
IC50 [2]: > 100 µM (not active) | IC50 [3]: 6.57 µM (active) | IC50 [4]: > 100 µM (inactive)

Other lines, results leading:

IC50 (Beta-galactosidase): > 66.6 µM (inactive)
Structure (SMILES): CC(C)Oc1cccc(C(=O)NC(=S)Nc2cccc(C(F)(F)F)c2)c1

IC50 (Aspartyl aminopeptidase): 1.87 µM (active) | IC50 (Procathepsin L): > 59.6 µM (not active)
Structure (SMILES): COc1cccc(-c2cc(C(=O)Nn3cnnc3)c3ccccc3n2)c1

IC50 (Beta-galactosidase): > 66.6 µM (inactive) | AC50 [5]: 8.18 µM (active)
Structure (SMILES): O=C(Oc1ccc(Cl)c2cccnc12)c1cccnc1

EC50 (Caspase-7): > 85.3 µM (inactive) | EC50 (Caspase-3): > 85.3 µM (inactive)
Structure (SMILES): COC(=O)C1=NN(c2ccc(Cl)cc2)C2C(=O)N(c3ccccc3OC)C(=O)C12 (stereo unspecified)

IC50 [1]: 37.3 µM (active)
Structure (SMILES): CCOC(=O)c1c(-c2ccc(C)o2)csc1NC(=S)NC(=O)c1ccccc1Br
